Measurements: patent US20200100497A1, “SAFENERS AND FORMULATIONS CONTAINING SAFENERS, BIOCIDES AND INOCULANTS” (Bayer CropScience LP, priority 2017, published 2020)

What was measured:
[1] = C-13 NMR stability of the formaldehyde/sodium bisulfite/N,N-dimethylamine adduct in aqueous solution; type: physicochemical; conditions: room temperature; for Conversion of N,N-dimethyl adduct back to formaldehyde bisulfite adduct: 18 days
Description: In a small vial, 137 mg of formaldehyde sodium bisulfite (CAS 870-72-4) was combined with 10 mL of high purity water and 200 mg of N,N-dimethylamine and stirred at room temperature to mix. The resulting mixture was stored at room temperature.
Aliquots of the mixture was analysed by C-13 NMR spectral analysis 48 hours and 18 days following formation.

[2] = Stability of CropStar formulation and thiodicarb in presence of sodium bisulfite, Example 1; type: physicochemical
Description: Sodium bisulfite was added to CropStar® (150 g/L imidacloprid+450 g/L thiodicarb; Bayer CropScience) in various mole ratios to formaldehyde (0.5:1, 1:1, 2:1, and 5:1) with or without pH adjustment to pH 7. Efficacy of sodium bisulfite was compared to no safener (Sample Nos. 1 & 5), two comparative safeners (Safener 1 & Safener 2), and inoculum only (BIAGRO Liquido NG—liquid inoculant and BIAGRO 10 Plus—peat-based inoculant). Safener 1 was obtained from Novozymes and contains the following active ingredients: soybean oil (CAS #8001-22-7), hydrolysed starch syrups (CAS #8029-43-4), and yeast extract (CAS #8013-01-2). Safener 2 was provided by Biagro and contains the following active ingredients: yeast extract, K2HPO4, and milk powder.

| SMILES | Conversion of N,N-dimethyl adduct back to formaldehyde bisulfite adduct [1] | Conversion of N,N-dimethyl adduct back to formaldehyde bisulfite adduct ([1]; listed as N,N-dimethylamine product) [%] | Time for which adduct is stable / takes to reverse back to formaldehyde bisulfite adduct [1] [days] | Degradation of thiodicarb ([2]; 1:1 mole ratio of sodium bisulfite to formaldehyde in CropStar) | Physical stability of the CropStar formulation ([2]; sodium bisulfite added to CropStar) |
| --- | --- | --- | --- | --- | --- |
| CN(C)CS(=O)(=O)O [N,N-dimethyl adduct (CAS 68507-34-6), 1-(dimethylamino)-methanesulfonic acid] | approximately 3.5% | 3.5 | > 18 |  |  |
| O=S([O-])O.[Na+] [sodium bisulfite] |  |  |  | did not significantly degrade thiodicarb | without affecting the physical stability of the formulation |
